Measured values as given in PubChem BioAssay (NCI).
Where “and” joins values, the source holds several entries; their conditions need not be identical. Equal values may be shown once.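 Each compound was tested at five concentrations against cells in 96-well plates for 48 hours. Here, GI50 denotes the concentration required for 50% inhibition of growth. TGI denotes the concentration required for complete inhibition of growth.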

Columns and labels:
Assay in all cases: NCI-60 cell line screen, 48 h
SW-620 colon = test system: SW-620 colon
NCI-H23 lung = test system: NCI-H23 lung
SR leukemia = test system: SR leukemia
UACC-257 melanoma = test system: UACC-257 melanoma
T-47D breast = test system: T-47D breast
RXF 393 renal = test system: RXF 393 renal
K-562 leukemia = test system: K-562 leukemia
LOX IMVI melanoma = test system: LOX IMVI melanoma
U251 CNS = test system: U251 CNS
SNB-75 CNS = test system: SNB-75 CNS

SMILES	GI50 (SW-620 colon)	TGI (SW-620 colon) [nM]	GI50 (NCI-H23 lung)	TGI (NCI-H23 lung)	GI50 (SR leukemia) [nM]	TGI (SR leukemia) [nM]	GI50 (UACC-257 melanoma)	TGI (UACC-257 melanoma)	GI50 (T-47D breast) [nM]	TGI (T-47D breast)	GI50 (RXF 393 renal)	TGI (RXF 393 renal)	GI50 (K-562 leukemia)	TGI (K-562 leukemia) [nM]	GI50 (LOX IMVI melanoma)	TGI (LOX IMVI melanoma)	GI50 (U251 CNS) [nM]	TGI (U251 CNS) [nM]	GI50 (SNB-75 CNS) [nM]	TGI (SNB-75 CNS) [nM]
C=C1C(OC/C=C/COC2O[C@@H]3O[C@@]4(C)CC[C@H]5[C@H](C)CC[C@@H](C2=C)[C@@]35OO4)O[C@@H]2O[C@@]3(C)CC[C@H]4[C@H](C)CC[C@@H]1[C@@]24OO3 (stereo not given in full)	86.3 nM	23600	70.8 nM	14200 nM	31.5	2600	4960 nM	36000 nM	15.8	21200 nM	166 nM	5930 nM	94.9 nM	> 67300	140 nM	2090 nM	12100	25700	7990	31100
CN(C)CCSCCO	–	> 100000	–	> 100000 nM	–	> 100000	–	> 100000 nM	–	> 100000 nM	–	> 100000 nM	–	> 100000	–	> 100000 nM	–	> 100000	–	> 100000
COc1cc(C2CC(=O)Nc3c2ccc2ccccc32)cc(Br)c1OC (stereo not given)	359 nM	> 100000	565 nM	> 100000 nM	350	16700	504 nM	68100 nM	811	> 100000 nM	780 nM	7050 nM	349 nM	> 75700	452 nM	> 33500 nM	433	> 37900	224	2430
O=C1c2ccccc2-c2c1c1ccc([N+](=O)[O-])cc1c(=O)n2CCCNCCO	59.4 nM	1770	115 nM	713 nM	35.5	1780	3370 nM	9390 nM	42	1710 nM	1870 nM	3880 nM	35.9 nM	1240	66.5 nM	348 nM	77.8	1430	372	1340
NCCCN1CCN(CCCNc2nc3ccccc3c3[nH]c4ccccc4c23)CC1	326 nM	7660	387 nM	1440 nM	352	71900	2510 nM	5720 nM	561	6850 nM	429 nM	1310 nM	71.5 nM	43100	409 nM	1810 nM	373	4540	691	1990
O=S(=O)(NC1=NCCN1C(=S)SN1CCn2c1nsc2=S)c1ccccc1Cl	10400 nM	77900	–	–	469	3310	31600 nM	> 100000 nM	17000	> 100000 nM	4380 nM	46500 nM	4620 nM	46300	16500 nM	62900 nM	21400	46000	13300	55600
COc1c(Cl)ccc2c(-c3nc4cc(Cl)c(F)cc4s3)cc(=O)oc12	10300 nM	> 100000	3250 nM	> 73700 nM	2200	8230	26500 nM	> 73600 nM	13000	45500 nM	5830 nM	17700 nM	5420 nM	> 100000	–	–	7570	44700	1560	3280
Cc1cc(N(CCCNc2ccnc3cc(Cl)ccc23)Cc2ccc3c(c2)OCO3)nc(N2CCCCC2)n1	–	–	2670 nM	13300 nM	1410	4140	2200 nM	4220 nM	1990	4820 nM	1520 nM	3120 nM	–	–	1690 nM	3290 nM	2060	4650	1470	3330
Cn1cnc2c(F)c(Nc3ccc(Br)cc3F)c(C(=O)NOCCO)cc21	29 nM and 44.9 nM	> 100000	227 nM and 215 nM	> 100000 nM	> 47000	> 100000	22.4 nM and 24 nM	253 nM and 148 nM	> 100000	> 100000 nM	455 nM and 4390 nM	> 96200 nM	1330 nM and 10800 nM	> 100000	93.6 nM and 399 nM	> 4030 nM and 42800 nM	7780	> 100000	–	–
CC(C)C[C@H](NC(=O)[C@H](Cc1cccc2ccccc12)NS(=O)(=O)c1cccc2cccnc12)B(O)O	1.5 nM	22.3	6.12 nM	132 nM and 199 nM	0.169	8.12	–	29 nM and 35.7 nM	0.928	26.9 nM and < 21.8 nM	9.19 nM	27.3 nM and < 23.7 nM	9.4 nM	163	1.37 nM	22.6 nM and < 19.9 nM	11	1450	–	–
COc1ccc(-c2cc(-c3cccc(NS(C)(=O)=O)c3)nc(N)c2C#N)cc1	48 nM	> 100000	256 nM	39800 nM	47	25700	–	–	362	13700 nM	50.6 nM	440 nM	54.1 nM	> 100000	74.3 nM	> 37500 nM	57.7	19300	31.6	769
